Measured values: article PMC3244877 (2009)

Biological target: T1, HsEg5 (Homo sapiens, UniProt P52732)
T1 sequence (P52732 1-370): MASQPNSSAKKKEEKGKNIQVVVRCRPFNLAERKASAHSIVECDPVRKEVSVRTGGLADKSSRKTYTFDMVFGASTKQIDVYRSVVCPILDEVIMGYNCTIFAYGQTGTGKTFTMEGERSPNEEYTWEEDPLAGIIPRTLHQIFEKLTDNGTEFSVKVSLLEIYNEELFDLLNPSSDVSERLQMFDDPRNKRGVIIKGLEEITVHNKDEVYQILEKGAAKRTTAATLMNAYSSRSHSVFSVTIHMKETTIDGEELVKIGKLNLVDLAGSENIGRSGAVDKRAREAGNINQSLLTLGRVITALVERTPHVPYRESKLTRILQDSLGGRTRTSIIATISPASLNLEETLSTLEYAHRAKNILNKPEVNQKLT
Assay: NADH-coupled basal ATPase assay, Lineweaver-Burk
Assay type: biochemical

Ki: 0.55 µM
Compound: [Mo] [NSC 622124]
